In data set [1] the target is T1, P-gp (Homo sapiens, UniProt P08183). Details: expressed in transfected cells; host or cells: MDA435/LCC6MDR (human breast cancer line, gift of Dr. Robert Clarke). The settings on record: Cpds at 1 μM; IC50 of PTX without/with modulator; cited from earlier work.
For data set [2], the system named is P-gp. Details: method as in PMID 25985195, PMID 34597896. The settings on record: cited from earlier work.
In data set [3] the target is T1, P-gp. As to the kind of experiment: Vanadate-sensitive P-gp ATPase activity assay (P-gp-Glo). The settings on record: 70 µM.
Procedure: (A) Effect of EC31 on vanadate-sensitive P-gp ATPase was studied. EC31, C25, and EGCG at different concentrations (10, 50, and 70 µM) were incubated with recombinant human P-gp microsomes and MgATP with or without sodium vanadate. After stopping the reaction, the remaining ATP level was determined by measuring the luciferase-generated luminescent signal. Vanadate-inhibitable P-gp ATPase activity was determined by calculating the luminescence signal in the samples with or without sodium vanadate. […] P-gp ATPase activity caused by compounds was normalized to basal P-gp ATPase activity (human P-gp microsome treated with DMSO) and was presented as fold change. A dashed line at 1.0-fold change represented the basal P-gp ATPase activity. […] The values in this figure were presented as mean ± standard error of mean. N = 3 independent experiments.
P-gp ATPase activity was measured with P-gp-Glo assay system (Promega, #V3601) with human P-gp membrane vesicles as reported previously [32]. […] The reaction was initiated by adding MgATP and was then incubated at 37 °C for 1 h. […] The remaining ATP signal of luminescence was measured with a Clariostar microplate reader (BMG Labtech, Ortenberg, Germany). Vanadate-inhibitable P-gp ATPase activity was determined by calculating the luminescence signal in the samples with or without sodium vanadate.
Data set [4] concerns P-gp. Description: EC50 for reversing drug resistance in P388ADR cells (cell proliferation assay).
Source text: (§2) EC50 was defined as the concentration at which the modulator can reduce the IC50 of an anticancer drug by half in the P-gp-overexpressing cell lines. […] The P-gp-modulating activity of methylated catechin derivatives was further studied by measuring the EC50. […] Three P-gp-overexpressing cell lines were employed, including breast cancer cell line LCC6MDR, mouse leukemia cell line P388ADR, and human leukemia cell line K562/P-gp. The anticancer drugs tested included DOX, PTX, and VCR. All values were presented as mean ± standard error of mean. N = 3–6 independent experiments.
(§3) About 6500 cells of LCC6MDR or 10,000 cells of P388ADR or K562/P-gp were seeded to each well of 96-well plate and were then incubated at 37 °C overnight. […] Cell viability was determined using CellTiter 96 AQueous Assay (Promega, Madison, WI, USA, #G1111) as reported previously [38]. The % of cell survival, IC50 of anticancer drugs towards the cell line, and EC50 of modulators were analyzed using nonlinear regression in Prism 5.0.
Data set [5] relates to P-gp. As to the kind of experiment: DOX efflux in P388ADR cells. It counts as cell-based, mouse. The settings on record: 1 µM modulator; after 180 min of efflux; P388ADR preloaded with 20 µM DOX. As for the experimental part:
Figure 2 Effect of methylated catechin derivatives on intracellular DOX accumulation and DOX efflux in the P-gp-overexpressing cancer cells. […] Then, the cells were washed, and the intracellular DOX level was measured using flow cytometer. (A) LCC6MDR, (B) P388ADR, and (C) K562/P-gp. […] (D) In the efflux study, P388ADR cells were firstly incubated with 20 µM DOX for 45 min. […] At 60, 120, and 180 min, the cells were harvested, and the intracellular DOX level was measured. At 180 min, ** represents p < 0.01, and *** represents p < 0.001, both being relative to P388ADR incubated with DMSO only. […] N = 3 independent experiments. DMSO was used as a solvent control, and the highest amount used was 0.5%.
We investigated if methylated catechin derivatives could inhibit P-gp-mediated drug efflux in P-gp-overexpressing cells. […] Without a modulator, intracellularly, the DOX level was maintained at 80% and 11% after 180 min for P388 and P388ADR cells, respectively (Figure 2D). […] After 180 min of efflux, the intracellular DOX level could be maintained at 61% (p < 0.001), 59% (p < 0.01), 44 % (p < 0.001), and 37%, respectively (Figure 2D).

In data set [6] the target is T1, P-gp. As to the kind of experiment: EC50 for reversing drug resistance in LCC6MDR cells (cell proliferation assay). The settings on record: EC50 for Reversing MDR, LCC6MDR.
Source text: as §2, §3
Data set [7] is described as follows: Pharmacokinetics of methylated catechin derivatives in plasma. It counts as in vivo, BALB/c mice. The settings on record: BALB/c, mouse; for AUC(0-inf): read-out: AUC0-infinity (converted). On the procedure:
Figure 4 Pharmacokinetics of methylated catechin derivatives and their effects on the PK of PTX. BALB/c mice were i.v. injected with 10 mg/kg or i.p. injected with 30 mg/kg of modulators. At 10, 30, 60, 180, 420, 840, and 1080 min postadministration, animals were sacrificed to collect their blood, and then the plasma concentration of modulator was determined using UPLC-MS/MS. The % of bioavailability of each modulator injected through i.p. injection route was calculated by comparing it to its plasma level when injected via i.v. injection. […] (E) Pharmacokinetic (PK) profiles of 4 potent methylated catechin derivatives were summarized. (F) The effect of modulators (GC51, EC31, or C25) on the PK of PTX was firstly determined through i.p. injection of modulator at 30 mg/kg 1 h prior to i.v. injection of 12 mg/kg PTX. At 10, 30, 60, 120, 240, and 420 min postadministration of PTX, animals were sacrificed. Plasma level of PTX was quantified through LC/MSMS. The dashed line indicates the corresponding EC50 of modulator in vitro for reversing PTX resistance. […] There were 3 mice at each time point. All pharmacokinetic parameters were calculated with the pharmacokinetic software Summit® PK solution. Two-tailed test was conducted for the AUC value of PTX alone and cotreatment. […] N.S. = not significant. / = not applicable.
In group 1, BALB/c mice were injected intravenously (i.v.) with 10 mg/kg of modulator, and their blood was collected at 10, 30, 60, 120, 240, and 480 min postadministration. In group 2, BALB/c mice were injected intraperitoneally (i.p.) with 30 mg/kg of modulator, and their blood was collected at 10, 30, 60, 180, 420, 840, and 1080 min postadministration.
The pharmacokinetics of PTX was studied with or without the coadministered modulator. PTX (12 mg/kg i.v.) alone was injected into the BALB/c mice. For the combination study, modulator (30 mg/kg i.p.) was injected 1 h before injecting PTX (12 mg/kg i.v.). The blood was collected at 10, 30, 60, 120, 240, and 420 min after PTX administration. Blood samples were spun at 14,000 rpm for 10 min at 4 °C to collect plasma supernatant. Plasma concentration of methylated catechin derivatives or PTX was determined through UPLC-QQQ-MS as described in Section 4.9. Pharmacokinetic parameters were analyzed with PK Solutions 2.0 (Summit Research Service, Ashland, OH, USA).

The target in data set [8] is T1, P-gp. Description: EC50 for reversing drug resistance in K562/P-gp cells (cell proliferation assay). The settings on record: EC50 for Reversing MDR.
Source text: as §2, §3
Data set [9] has as its system fibroblast cells. Details: method as in PMID 25985195, PMID 34597896. The settings on record: cited from earlier work.
The test system of data set [10] is MRP1. The settings on record: Cpds at 1 μM; IC50 of DOX without/with modulator; cited from earlier work.
For data set [11], the system named is K562/P-gp cells. Description: Drug resistance level: IC50 of anticancer drugs in K562/P-gp. It counts as cell-based, human. On the procedure:
(§1) In the Western blot membrane, the total P-gp and β-actin expression in each lane was quantified with ImageJ software. The relative P-gp expression was an intensity ratio of P-gp band relative to the β-actin band. The relative P-gp expression of the resistant cell line relative to its respective wild type was presented as a bar chart. The plasma membrane P-gp levels of LCC6MDR and K562/P-gp relative to their wild types were determined through flow cytometry using antihuman P-gp-PE antibodies. (B) LCC6MDR and LCC6. (C) K562/P-gp and K562. (D) the drug resistance levels of three P-gp-overexpressing cell lines and their wild types were studied. The 3 pairs of cell lines were incubated with anticancer drugs paclitaxel (PTX), doxorubicin (DOX), and vincristine (VCR) for 3 days, and the % of cell survival was then determined. Their IC50 (nM) values were calculated using Prism 5.0. RF (relative fold) was a ratio of IC50 of anticancer drugs in a P-gp-overexpressing cell line relative to its respective wild type. N = 3 independent experiments. […] All cell lines were counterstained with DAPI. (E) LCC6 and LCC6MDR, (F) P388 and P338ADR, and (G) K562 and K562/P-gp. Bar = 8 µm. / = not determined.

The subject of data set [12] is K562 cells. Description: Drug resistance level: IC50 of anticancer drugs in K562. The format is cell-based. The settings on record: Homo sapiens, K562, 72 h; 3 days incubation. As for the experimental part: as §1
[13] abbreviates: read-out: EC50 for Reversing MDR, DOX Resistance, P388ADR, concentration that reduces IC50 of DOX by half.
The mark [14] stands for this setting: read-out: EC50 for Reversing MDR, PTX Resistance, P388ADR, concentration that reduces IC50 of PTX by half.
The mark [15] stands for this setting: DOX Resistance, concentration that reduces IC50 of DOX by half.
Setting [16] is: PTX Resistance, concentration that reduces IC50 of PTX by half.
The mark [17] stands for this setting: DOX Resistance, K562/P-gp, concentration that reduces IC50 of DOX by half.
Where [18] appears, read: VCR Resistance, K562, concentration that reduces IC50 of VCR by half, column head prints K562.

As a reminder, the AUC(0-t) is exposure summed from dosing to a finite time, without extrapolation to infinity. What is called Cmax is the maximum level reached in the sampled fluid or tissue. For orientation: Tmax means the time at which the peak concentration occurs. The half-life is the time in which the quantity being followed falls by half. By IC50 is commonly meant the concentration that inhibits the measured activity by half.

Read-outs that look alike come from different tables or passages of the source.

T1 sequence (P08183 whole entry): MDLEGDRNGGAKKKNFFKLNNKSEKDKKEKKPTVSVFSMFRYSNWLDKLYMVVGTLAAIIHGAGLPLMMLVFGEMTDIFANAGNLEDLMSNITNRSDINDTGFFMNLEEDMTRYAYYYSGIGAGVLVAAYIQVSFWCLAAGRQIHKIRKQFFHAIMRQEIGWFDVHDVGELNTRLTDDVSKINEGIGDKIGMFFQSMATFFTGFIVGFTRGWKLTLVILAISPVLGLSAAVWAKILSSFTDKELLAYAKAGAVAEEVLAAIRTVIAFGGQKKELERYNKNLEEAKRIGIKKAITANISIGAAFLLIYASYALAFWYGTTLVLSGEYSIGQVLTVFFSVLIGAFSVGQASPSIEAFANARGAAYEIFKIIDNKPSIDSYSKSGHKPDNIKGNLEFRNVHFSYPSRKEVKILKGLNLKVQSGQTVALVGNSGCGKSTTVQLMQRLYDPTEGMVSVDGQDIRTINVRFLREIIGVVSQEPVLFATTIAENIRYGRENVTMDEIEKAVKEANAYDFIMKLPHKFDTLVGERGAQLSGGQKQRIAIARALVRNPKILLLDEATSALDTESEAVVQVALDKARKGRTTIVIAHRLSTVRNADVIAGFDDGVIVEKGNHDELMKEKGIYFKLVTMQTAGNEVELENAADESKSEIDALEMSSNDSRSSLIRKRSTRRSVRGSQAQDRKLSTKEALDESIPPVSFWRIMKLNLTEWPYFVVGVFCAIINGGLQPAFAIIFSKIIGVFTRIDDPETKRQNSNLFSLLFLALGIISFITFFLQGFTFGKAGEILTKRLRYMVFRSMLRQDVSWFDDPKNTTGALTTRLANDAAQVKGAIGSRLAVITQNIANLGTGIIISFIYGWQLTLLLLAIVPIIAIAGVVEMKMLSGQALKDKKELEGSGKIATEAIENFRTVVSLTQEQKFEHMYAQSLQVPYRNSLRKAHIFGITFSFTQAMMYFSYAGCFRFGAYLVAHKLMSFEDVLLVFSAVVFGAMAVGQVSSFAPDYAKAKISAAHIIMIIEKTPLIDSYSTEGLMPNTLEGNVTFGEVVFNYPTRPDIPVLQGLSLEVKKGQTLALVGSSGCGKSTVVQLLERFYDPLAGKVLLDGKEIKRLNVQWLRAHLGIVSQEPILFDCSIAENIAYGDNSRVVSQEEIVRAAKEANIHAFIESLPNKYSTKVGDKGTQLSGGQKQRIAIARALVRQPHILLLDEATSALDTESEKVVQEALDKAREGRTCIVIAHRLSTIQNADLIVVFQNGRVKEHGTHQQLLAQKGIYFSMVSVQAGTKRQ

Take `COc1cc(OC)c2c(c1)O[C@H](c1ccc(OC)c(OC)c1)[C@@H](OC(=O)c1ccc(F)c(NC(=O)c3cc(OC)c(OC)c(OC)c3)c1)C2` [C25]: the “LCC6MDR P-gp-modulating activity RF (relative fold)” value in [1] was 84.7. The “effect on plasma membrane level of P-gp” value in data set [2] is reported as “did not affect”. In addition, the “P-gp ATPase activity, fold change relative to basal” value in data set [3] is reported as at most 1.6 fold. The EC50 in [4] (setting [13]) was 260 ± 60 nM; in [4] (setting [14]), 216 ± 10 nM; in [6] (setting [15]) it was 180 ± 18 nM; in [6] (setting [16]) it was 91 ± 5 nM; in data set [8] (setting [17]), 93 ± 21 nM; in [8] (setting [18]), 60 ± 12 nM. Further, the “Relative intracellular DOX level (%)” value in [5] was determined as 37%. Further, the area under the curve AUC(0-t) in data set [7] (ip, 30 mg/kg) is 21200 ng·h/mL; in [7] (iv, 10 mg/kg) it was 8870 ng·h/mL. Also, the peak concentration (Cmax) in data set [7] (ip, 30 mg/kg) stood at 5260 ng/mL. In addition, the Tmax in data set [7] (ip, 30 mg/kg) was 1 h. Also, the half-life in [7] (ip, 30 mg/kg) was 187 min; in [7] (iv, 10 mg/kg), 51 min. Further, the AUC(0-inf) was 21600 ng·h/mL in data set [7] (ip, 30 mg/kg) and 8890 ng·h/mL in [7] (iv, 10 mg/kg). Also, the 50% inhibitory concentration (IC50) in data set [9] is above 100 µM. For the same compound, in [10], the “2008MRP1 MRP1-modulating activity RF (relative fold)” value is 1.2.

Turning to `COc1cc(OC)c2c(c1)OC(c1cc(OC)c(OC)c(OC)c1)C(OC(=O)C=Cc1cc(OC)c(OC)c(OC)c1)C2` (centres unmarked) [EGC23], in data set [4] (setting [13]), the EC50 is […]. For the same compound, the EC50 in data set [4] (setting [14]) worked out at […]. For the same compound, in data set [7] (ip, 30 mg/kg), the AUC(0-t) was […], the peak concentration (Cmax) worked out at 2210 ng/mL, the time to peak (Tmax) was 1 h and the half-life was 147 min. The AUC(0-inf) in data set [7] (ip, 30 mg/kg) was 7090 ng·h/mL. In addition, in data set [7] (iv, 10 mg/kg), the AUC(0-t) is 3190 ng·h/mL, the half-life stood at 32.3 min and the AUC(0-inf) is 3210 ng·h/mL.

`COc1cc(OC)c2c(c1)O[C@H](c1cc(OC)c(OC)c(OC)c1)[C@@H](OC(=O)c1ccc(F)c(NC(=O)c3cc(OC)c(OC)c(OC)c3)c1)C2` [GC51]: the “LCC6MDR P-gp-modulating activity RF (relative fold)” value in data set [1] is on record as 52.6. Moreover, the EC50 in data set [4] (setting [13]) was determined as 335 ± 15 nM; in data set [4] (setting [14]), 496 ± 12 nM; in data set [6] (setting [15]), 233 ± 36 nM; in [6] (setting [16]), 82 ± 14 nM; in data set [8] (setting [17]), 129 ± 36 nM; in data set [8] (setting [18]) it was 77 ± 7 nM. The “Relative intracellular DOX level (%)” value in [5] is 59%. Besides, the AUC(0-t) in data set [7] (ip, 30 mg/kg) is 24500 ng·h/mL; in data set [7] (iv, 10 mg/kg), 13000 ng·h/mL. Further, in data set [7] (ip, 30 mg/kg), the Cmax is 6120 ng/mL. Besides, in data set [7] (ip, 30 mg/kg), the Tmax was 1 h. The half-life in data set [7] (ip, 30 mg/kg) was 230 min; in data set [7] (iv, 10 mg/kg), 91.5 min. Also, the AUC(0-inf) in data set [7] (ip, 30 mg/kg) was 25700 ng·h/mL; in data set [7] (iv, 10 mg/kg) it was 13600 ng·h/mL. Also, in data set [10], the “2008MRP1 MRP1-modulating activity RF (relative fold)” value is 3.0.

Take `CC[C@]1(O)C[C@H]2CN(CCc3c([nH]c4ccccc34)[C@@](C(=O)OC)(c3cc4c(cc3OC)N(C=O)[C@H]3[C@@](O)(C(=O)OC)[C@H](OC(C)=O)[C@]5(CC)C=CCN6CC[C@]43[C@@H]65)C2)C1` [VCR, vincristine]: the concentration for half-maximal inhibition (IC50) in [11] (Homo sapiens, K562, 72 h, 3 days incubation) stood at 84.1 ± 6.4 nM; in data set [12] it was 0.5 ± 0.1 nM. The “RF (relative fold)” value in data set [11] (IC50 in K562/P-gp relative to K562) was determined as 168.2.

These data come from publication PMC10002220, “In Vivo Reversal of P-Glycoprotein-Mediated Drug Resistance in a Breast Cancer Xenograft and in Leukemia Models Using a Novel, Potent, and Nontoxic Epicatechin EC31” (International Journal of Molecular Sciences, 2023).
